Measurements: patent US9150632B2 (Indiana University Research and Technology Corporation, priority 2009, dated 2015)
Like-named read-outs stand apart in the source and are kept apart here. Non-standard residues stand in square brackets, D forms with d. Residues, ends and D or L forms follow the SMILES beside them. No end group written: not given here. *: point of attachment. Palmitoyl = CCCCCCCCCCCCCCCC(=O)*; Myristoyl = CCCCCCCCCCCCCC(=O)*; Aib = CC(C)(N)C(=O)O

Experiments:
[1] = molecular target: T1, glucagon receptor (Homo sapiens, UniProt P47871); test: Functional assay-cAMP synthesis, luciferase reporter in HEK293 cells, glucagon receptor; type: cell-based; settings: for % Relative activity at the Receptor for Glucagon: relative to the native hormone; for Glucagon Receptor % relative activity: activity relative to the native hormone at the indicated receptor; for % Activity of Glucagon: Table 21, relative to the native peptide
T1 construct: expressed in transfected cells; host or cells: HEK293
Description: (§1) Peptide absorbance readings were obtained from UV Absorbance measurements at 280 nm on a Genesys 6 Spectrophotometer (Thermo Electron Corporation). Beer's Law was used to calculate solution concentrations based on the number of tryptophan and tyrosine residues in each analog. At the end of the incubation, 100 μL LucLite luminescence substrate reagent was added to each well, the plate sealed and shaken, and placed into a Wallac Trilux luminescence counter for cAMP detection.
(§2) HEK293 cells were co-transfected with the GcgR or GLP-1R cDNAs and a luciferase reporter gene-linked to a cAMP response element (CRE). […] The plate was incubated for 10 min in the dark and light output was quantified on a MicroBeta1450 liquid scintillation counter (Perkin-Elmer, Wellesley, Mass.).

[2] = molecular target: T2, GIP receptor (Homo sapiens, UniProt P48546); test: Functional assay-cAMP synthesis, luciferase reporter in HEK293 cells, GIP receptor; type: cell-based; settings: for % Relative activity at the Receptor for GIP: relative to the native hormone; for GIP Receptor % relative activity: activity relative to the native hormone at the indicated receptor; for EC50: read-out: GIP Receptor EC50, cAMP induction, in vitro, as in Example 14
T2 construct: expressed in transfected cells; host or cells: HEK293
T2 sequence (P48546 22-466): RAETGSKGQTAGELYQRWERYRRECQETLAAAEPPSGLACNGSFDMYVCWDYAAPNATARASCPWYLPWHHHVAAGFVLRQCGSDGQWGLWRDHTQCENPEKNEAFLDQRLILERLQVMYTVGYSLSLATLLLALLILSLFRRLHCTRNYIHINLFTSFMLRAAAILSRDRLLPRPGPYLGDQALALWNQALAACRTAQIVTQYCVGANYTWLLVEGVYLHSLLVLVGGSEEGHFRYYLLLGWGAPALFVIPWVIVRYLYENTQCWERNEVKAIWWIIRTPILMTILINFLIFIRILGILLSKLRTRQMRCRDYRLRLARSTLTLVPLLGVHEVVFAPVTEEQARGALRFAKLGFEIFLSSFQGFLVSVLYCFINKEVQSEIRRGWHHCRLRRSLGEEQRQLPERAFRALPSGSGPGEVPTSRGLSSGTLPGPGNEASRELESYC

[3] = molecular target: GLP-1 receptor (Homo sapiens, UniProt P43220); settings: for % Relative activity at the Receptor for GLP-1: relative to the native hormone; for GLP-1 Receptor % relative activity: activity relative to the native hormone at the indicated receptor; for EC50: read-out: GLP-1 Receptor EC50, cAMP induction, in vitro, as in Example 14; for % Activity of GLP-1: Table 21, relative to the native peptide
Chain of GLP-1 receptor (P43220 24-463, species assumed): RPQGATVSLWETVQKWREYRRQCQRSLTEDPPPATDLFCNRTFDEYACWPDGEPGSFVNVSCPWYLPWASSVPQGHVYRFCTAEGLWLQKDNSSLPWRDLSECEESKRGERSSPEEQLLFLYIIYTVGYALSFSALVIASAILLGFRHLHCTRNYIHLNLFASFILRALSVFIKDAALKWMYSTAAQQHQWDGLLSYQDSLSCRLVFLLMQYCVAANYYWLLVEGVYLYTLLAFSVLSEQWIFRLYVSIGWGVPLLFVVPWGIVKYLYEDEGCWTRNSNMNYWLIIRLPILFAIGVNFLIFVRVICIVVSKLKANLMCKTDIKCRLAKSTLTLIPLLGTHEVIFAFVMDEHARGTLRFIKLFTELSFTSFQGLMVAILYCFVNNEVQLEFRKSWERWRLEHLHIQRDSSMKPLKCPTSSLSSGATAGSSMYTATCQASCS
Description: as §1, §2

T1 sequence (P47871 26-477): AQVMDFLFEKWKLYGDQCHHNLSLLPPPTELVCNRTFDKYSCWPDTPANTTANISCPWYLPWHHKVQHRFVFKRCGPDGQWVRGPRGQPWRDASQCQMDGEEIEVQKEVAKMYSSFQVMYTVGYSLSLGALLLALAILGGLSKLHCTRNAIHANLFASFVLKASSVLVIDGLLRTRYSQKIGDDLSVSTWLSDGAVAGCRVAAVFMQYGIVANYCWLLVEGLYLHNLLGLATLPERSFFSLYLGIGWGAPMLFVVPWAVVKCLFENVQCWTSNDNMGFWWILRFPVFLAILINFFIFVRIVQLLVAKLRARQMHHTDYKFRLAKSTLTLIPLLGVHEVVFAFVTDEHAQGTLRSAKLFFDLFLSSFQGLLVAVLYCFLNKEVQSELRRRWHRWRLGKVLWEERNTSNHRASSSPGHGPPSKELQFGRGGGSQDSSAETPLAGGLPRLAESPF

Compound: CCCCCCCCCCCCCC(=O)NCCCC[C@H](NC(=O)[C@H](CO)NC(=O)[C@@H]1CCCN1C(=O)[C@@H]1CCCN1C(=O)[C@@H]1CCCN1C(=O)[C@H](C)NC(=O)CNC(=O)[C@H](CO)NC(=O)[C@H](CO)NC(=O)[C@@H]1CCCN1C(=O)CNC(=O)CNC(=O)[C@H](CC(N)=O)NC(=O)[C@H](CCSC)NC(=O)[C@H](CC(C)C)NC(=O)[C@H](Cc1c[nH]c2ccccc12)NC(=O)[C@H](CS)NC(=O)[C@@H](NC(=O)[C@H](Cc1ccccc1)NC(=O)[C@H](CCC(=O)O)NC(=O)[C@H](CCCCN)NC(=O)[C@H](C)NC(=O)[C@H](C)NC(=O)[C@H](CCC(N)=O)NC(=O)C(C)(C)NC(=O)[C@H](CC(=O)O)NC(=O)[C@H](CC(C)C)NC(=O)[C@H](Cc1ccc(O)cc1)NC(=O)[C@H](CCCCN)NC(=O)[C@H](CO)NC(=O)[C@H](Cc1ccc(O)cc1)NC(=O)[C@H](CC(=O)O)NC(=O)[C@H](CO)NC(=O)[C@@H](NC(=O)[C@H](Cc1ccccc1)NC(=O)[C@@H](NC(=O)CNC(=O)[C@H](CCC(N)=O)NC(=O)C(C)(C)NC(=O)[C@@H](N)Cc1c[nH]cn1)[C@@H](C)O)[C@@H](C)O)[C@@H](C)CC)C(N)=O [mt-347] (H-H[Aib]QGTFTSDYSKYLD[Aib]QAAKEFICWLMNGGPSSGAPPPSK(Myristoyl)-NH2; N-terminus assumed)
- % Relative activity at the Receptor for Glucagon ([1]; Table 35): 111%
- Glucagon Receptor % relative activity [1]: 111.36%
- % Relative activity at the Receptor for GIP ([2]; Table 35): 0.7%
- GIP Receptor % relative activity [2]: 0.70%
- % Relative activity at the Receptor for GLP-1 ([3]; Table 35): 67%
- GLP-1 Receptor % relative activity [3]: 67.07%

Compound: mt-352: pegylated glucagon peptide of Table 34 (H[Aib]QGTFTSDYSKYLD[Aib]QAAKEFIC(PEG 40 kDa)WLMNGGPSSGAPPPSK-NH2)
- GIP Receptor % relative activity [2]: 0.01%
- EC50 [2]: 51.1 nM
- GLP-1 Receptor % relative activity [3]: 23.08%
- EC50 [3]: 0.0273 nM

Compound: mt-349 (H[Aib]QGTFTSDYSKYLDEQAAKEFIC(PEG 40 kDa)WLMNGGPSSGAPPPSK(Myristoyl)-NH2; also: acylated with a C14 fatty acyl group, site not given here)
- Glucagon Receptor % relative activity [1]: 3.82%
- EC50 ([1]; read-out: Glucagon Receptor EC50, cAMP induction, in vitro, as in Example 14): 0.549 nM
- GIP Receptor % relative activity [2]: 0.18%
- EC50 [2]: 1.99 nM
- GLP-1 Receptor % relative activity [3]: 286.36%
- EC50 [3]: 0.0022 nM

Compound: CCCCCCCCCCCCCCCC(=O)NCCCC[C@H](NC(=O)[C@H](CO)NC(=O)[C@@H]1CCCN1C(=O)[C@@H]1CCCN1C(=O)[C@@H]1CCCN1C(=O)[C@H](C)NC(=O)CNC(=O)[C@H](CO)NC(=O)[C@H](CO)NC(=O)[C@@H]1CCCN1C(=O)CNC(=O)CNC(=O)[C@H](C)NC(=O)[C@H](CC(C)C)NC(=O)[C@H](CC(C)C)NC(=O)[C@H](Cc1c[nH]c2ccccc12)NC(=O)[C@H](CC(N)=O)NC(=O)[C@@H](NC(=O)[C@H](Cc1ccccc1)NC(=O)[C@H](CCC(=O)O)NC(=O)C(C)(C)NC(=O)[C@H](C)NC(=O)[C@H](C)NC(=O)[C@H](CCC(N)=O)NC(=O)[C@H](CCCCN)NC(=O)[C@H](CC(=O)O)NC(=O)[C@H](CC(C)C)NC(=O)[C@H](Cc1ccc(O)cc1)NC(=O)[C@@H](NC(=O)[C@H](CO)NC(=O)[C@H](Cc1ccc(O)cc1)NC(=O)[C@H](CC(=O)O)NC(=O)[C@H](CO)NC(=O)[C@@H](NC(=O)[C@H](Cc1ccccc1)NC(=O)[C@@H](NC(=O)CNC(=O)[C@H](CCC(N)=O)NC(=O)C(C)(C)NC(=O)[C@@H](N)Cc1ccc(O)cc1)[C@@H](C)O)[C@@H](C)CC)[C@@H](C)CC)C(C)C)C(N)=O [mt-358] (H-Y[Aib]QGTFISDYSIYLDKQAA[Aib]EFVNWLLAGGPSSGAPPPSK(Palmitoyl)-NH2)
- % Relative activity at the Receptor for Glucagon ([1]; Table 36): 710.29%
- % Relative activity at the Receptor for GIP ([2]; Table 36): 313.61%
- % Relative activity at the Receptor for GLP-1 ([3]; Table 36): 11.89%

Compound: CSCC[C@H](NC(=O)[C@H](CC(C)C)NC(=O)[C@H](Cc1c[nH]c2ccccc12)NC(=O)[C@H](CCC(N)=O)NC(=O)[C@@H](NC(=O)[C@H](Cc1ccccc1)NC(=O)[C@H](CC(=O)O)NC(=O)[C@H](CCCCN)NC(=O)[C@H](C)NC(=O)[C@H](CCCNC(=N)N)NC(=O)[C@H](CCCNC(=N)N)NC(=O)[C@H](CCC(=O)O)NC(=O)[C@H](CC(=O)O)NC(=O)[C@H](CC(C)C)NC(=O)[C@H](Cc1ccc(O)cc1)NC(=O)[C@H](CCCCN)NC(=O)[C@H](CO)NC(=O)[C@H](Cc1ccc(O)cc1)NC(=O)[C@H](CC(=O)O)NC(=O)[C@H](CO)NC(=O)[C@@H](NC(=O)[C@H](Cc1ccccc1)NC(=O)[C@@H](NC(=O)CNC(=O)[C@H](CCC(N)=O)NC(=O)[C@H](CO)NC(=O)[C@@H](N)Cc1c[nH]cn1)[C@@H](C)O)[C@@H](C)O)C(C)C)C(=O)N[C@@H](CC(N)=O)C(=O)N[C@H](C(N)=O)[C@@H](C)O [E16, K20 Gluc-NH2]
- Percent Potency Relative to Native Ligand GRec ([1]; Table 5): 130.1%
- Percent Potency Relative to Native Ligand GRec ([1]; Table 9): 130.1%
- Percent Potency Relative to Native Ligand GLP-1Rec ([3]; Table 5): 41.5%
- Percent Potency Relative to Native Ligand GLP-1Rec ([3]; Table 9): 41.5%

Compound: CCCCCCCCCCCCCCCCCC(=O)NCCCC[C@H](NC(=O)[C@H](CC(=O)O)NC(=O)[C@H](CO)NC(=O)[C@@H](NC(=O)[C@H](Cc1ccccc1)NC(=O)[C@@H](NC(=O)CNC(=O)[C@H](CCC(N)=O)NC(=O)C(C)(C)NC(=O)[C@@H](N)Cc1c[nH]cn1)[C@@H](C)O)[C@@H](C)O)C(=O)N[C@@H](CO)C(=O)N[C@@H](CCCCN)C(=O)N[C@@H](Cc1ccc(O)cc1)C(=O)N[C@@H](CC(C)C)C(=O)N[C@@H](CC(=O)O)C(=O)NC(C)(C)C(=O)N[C@@H](CCCNC(=N)N)C(=O)N[C@@H](CCCNC(=N)N)C(=O)N[C@@H](C)C(=O)N[C@@H](CCC(N)=O)C(=O)N[C@@H](CC(=O)O)C(=O)N[C@@H](Cc1ccccc1)C(=O)N[C@H](C(=O)N[C@@H](CCC(N)=O)C(=O)N[C@@H](Cc1c[nH]c2ccccc12)C(=O)N[C@@H](CC(C)C)C(=O)N[C@@H](CCSC)C(=O)N[C@@H](CC(N)=O)C(=O)N[C@H](C(N)=O)[C@@H](C)O)C(C)C [AIB2, AIB16, K10(C18) Gluc Amide]
- % Activity of Glucagon [1]: 212.5%
- % Activity of GLP-1 [3]: 88.9%

Compound: CSCC[C@H](NC(=O)[C@H](CC(C)C)NC(=O)[C@H](Cc1c[nH]c2ccccc12)NC(=O)[C@H](CCC(N)=O)NC(=O)[C@@H](NC(=O)[C@H](Cc1ccccc1)NC(=O)[C@H](CC(=O)O)NC(=O)[C@H](CCC(N)=O)NC(=O)[C@H](C)NC(=O)[C@H](CCCNC(=N)N)NC(=O)[C@H](CCCNC(=N)N)NC(=O)[C@H](CO)NC(=O)[C@H](CC(=O)O)NC(=O)[C@H](CC(C)C)NC(=O)[C@H](Cc1ccc(O)cc1)NC(=O)[C@H](CCCCN)NC(=O)[C@H](CO)NC(=O)[C@H](Cc1ccc(O)cc1)NC(=O)[C@H](CC(=O)O)NC(=O)[C@H](CO)NC(=O)[C@@H](NC(=O)[C@H](Cc1ccccc1)NC(=O)[C@@H](NC(=O)CNC(=O)[C@H](CCC(N)=O)NC(=O)[C@H](CO)NC(=O)[C@@H](N)Cc1c[nH]cn1)[C@@H](C)O)[C@@H](C)O)C(C)C)C(=O)N[C@@H](CC(N)=O)C(=O)NCC(=O)NCC(=O)N1CCC[C@H]1C(=O)N[C@@H](CO)C(=O)N[C@@H](CO)C(=O)NCC(=O)N[C@@H](C)C(=O)N1CCC[C@H]1C(=O)N1CCC[C@H]1C(=O)N1CCC[C@H]1C(=O)N[C@@H](CO)C(N)=O [MNGG^30 PSSGAPPPS (SEQ ID NO: 522)]
- Glucagon Receptor Relative Potency ([1]; Table 11): 30%
- GLP-1 Receptor Relative Potency ([3]; Table 11): 8%

Compound: mt-351: pegylated glucagon peptide of Table 34 (H[Aib]QGTFTSDYSKYLD[Aib]QAAKEFIC(PEG 40 kDa)WLMNGGPSSGAPPPSK(Myristoyl)-NH2; also: acylated with a C14 fatty acyl group, site not given here)
- GIP Receptor % relative activity [2]: 0.09%
- EC50 [2]: 4.12 nM
- GLP-1 Receptor % relative activity [3]: 150.00%
- EC50 [3]: 0.0042 nM

Compound: CCCCCCCCCCCCCC(=O)NCCCC[C@H](NC(=O)[C@H](CC(=O)O)NC(=O)[C@H](CO)NC(=O)[C@@H](NC(=O)[C@H](Cc1ccccc1)NC(=O)[C@@H](NC(=O)CNC(=O)[C@H](CCC(N)=O)NC(=O)C(C)(C)NC(=O)[C@@H](N)Cc1c[nH]cn1)[C@@H](C)O)[C@@H](C)O)C(=O)N[C@@H](CO)C(=O)N[C@@H](CCCCN)C(=O)N[C@@H](Cc1ccc(O)cc1)C(=O)N[C@@H](CC(C)C)C(=O)N[C@@H](CC(=O)O)C(=O)NC(C)(C)C(=O)N[C@@H](CCCNC(=N)N)C(=O)N[C@@H](CCCNC(=N)N)C(=O)N[C@@H](C)C(=O)N[C@@H](CCC(N)=O)C(=O)N[C@@H](CC(=O)O)C(=O)N[C@@H](Cc1ccccc1)C(=O)N[C@H](C(=O)N[C@@H](CCC(N)=O)C(=O)N[C@@H](Cc1c[nH]c2ccccc12)C(=O)N[C@@H](CC(C)C)C(=O)N[C@@H](CCSC)C(=O)N[C@@H](CC(N)=O)C(=O)N[C@H](C(N)=O)[C@@H](C)O)C(C)C [AIB2, AIB16, K10(C14) Gluc Amide]
- % Activity of Glucagon [1]: 77.3%
- % Activity of GLP-1 [3]: 33.3%
